Calls of active or inactive are those of the source. How the calls were made is not given here.
System: GENE-TOX genotoxicity assays, various organisms and cells
Experiment: GENE-TOX mutagenicity studies
Conditions: for call: Assay Type: In vivo carcinogenicity studies
[1] = Species/Cell Type: Salmonella typhimurium (one or more of the five standard strains: TA98, TA100, TA1535, TA1537, and TA1538), Assay Type: Histidine reverse gene mutation, Ames assay, Assay Code: SAL+, Evaluation Type: Evaluation A (Pre-1980)
[2] = Species/Cell Type: Salmonella typhimurium (one or more of the five standard strains: TA98, TA100, TA1535, TA1537, and TA1538), Assay Type: Histidine reverse gene mutation, Ames assay, Assay Code: SAL+*, Activation: With metabolic activation, Evaluation Type: Evaluation A (Pre-1980)
[3] = Species/Cell Type: Bacillus subtilis (H17 vs M45T), Assay Type: Rec-assay, spot test, DNA effects (bacterial DNA repair), Assay Code: REXT, Evaluation Type: Evaluation A (Pre-1980)
[4] = Species/Cell Type: Nonhuman, Assay Type: Sister-chromatid exchange (SCE) in vitro, Assay Code: SC2+D, Dose Response: With dose response, Evaluation Type: Evaluation B (Post-1980)
[5] = Species/Cell Type: Nonhuman, Assay Type: Sister-chromatid exchange (SCE) in vitro, Assay Code: SC2+, Evaluation Type: Evaluation B (Post-1980)
[6] = Species/Cell Type: Mammalian polychromatic erythrocytes, Assay Type: Micronucleus test, chromosome aberrations, Assay Code: MNT+, Evaluation Type: Evaluation B (Post-1980)
[7] = Species/Cell Type: Mouse, Sex: Male, Assay Type: Sperm morphology, Assay Code: SPI-, Evaluation Type: Evaluation A (Pre-1980)
[8] = Species/Cell Type: Bacillus subtilis (H17 vs M45), Assay Type: Rec-assay, spot test, DNA effects (bacterial DNA repair), Assay Code: REW-, Evaluation Type: Evaluation A (Pre-1980)
[9] = Species/Cell Type: Human, Assay Type: Sister-chromatid exchange (SCE) in vitro, Assay Code: SC1T, Evaluation Type: Evaluation B (Post-1980)
[10] = Species/Cell Type: Allium cepa, Assay Type: Chromosome aberrations, Assay Code: ALC-, Evaluation Type: Evaluation A (Pre-1980)
[11] = Species/Cell Type: Nonhuman, Assay Code: CCG+, Evaluation Type: Evaluation A (Pre-1980)
[12] = Species/Cell Type: Escherichia coli WP2 UVRA, Assay Type: Tryptophan reverse gene mutation, Assay Code: WPU-*, Activation: With metabolic activation, Evaluation Type: Evaluation A (Pre-1980)
[13] = Species/Cell Type: Bacillus subtilis (H17 vs M45), Assay Type: Rec-assay, spot test, DNA effects (bacterial DNA repair), Assay Code: REWT, Evaluation Type: Evaluation A (Pre-1980)
[14] = Species/Cell Type: Saccharomyces cerevisiae, Assay Type: Mitotic recombination or gene conversion, Assay Code: YEC+, Evaluation Type: Evaluation A (Pre-1980)

## CC(=O)Nc1ccc(C(=O)CCl)cc1
Species/Cell Type: Nonhuman, Assay Code: CCG-, Evaluation Type: Evaluation A (Pre-1980)
  call: inactive; negative

## CC1CN(N=O)C(=O)NC1=O (configuration not stated)
[1]
  mutagenic call: active; positive

## CCOC(=O)CSc1ccc2c3c(cccc13)C(=O)c1ccccc1-2
[2]
  mutagenic call: active; positive

## CCN(CC)c1ccc(N=Nc2ccccc2)cc1
Species/Cell Type: Saccharomyces cerevisiae, Assay Type: Mitotic recombination or gene conversion, Assay Code: YEH-, Evaluation Type: Evaluation A (Pre-1980)
  mutagenic call: inactive; negative
Species/Cell Type: Salmonella typhimurium (one or more of the five standard strains: TA98, TA100, TA1535, TA1537, and TA1538), Assay Type: Histidine reverse gene mutation, Ames assay, Assay Code: SAL-, Evaluation Type: Evaluation A (Pre-1980)
  mutagenic call: inactive; negative

## CC1=CC(=C(c2ccc(N)cc2)c2ccc(N)cc2)C=CC1=N (tested in a mixture with another compound)
Species/Cell Type: Saccharomyces cerevisiae, Assay Type: Forward gene mutation, Assay Code: YEFT, Evaluation Type: Evaluation A (Pre-1980)
  mutagenic call: no conclusion

## CN[C@@H]1[C@H](O[C@H]2[C@H](O[C@H]3[C@H](O)[C@@H](O)[C@H](N=C(N)N)[C@@H](O)[C@@H]3N=C(N)N)O[C@@H](C)[C@]2(O)C=O)O[C@@H](CO)[C@H](O)[C@H]1O
[3]
  mutagenic call: no conclusion
Species/Cell Type: Drosophila melanogaster, Assay Type: Sex-linked recessive lethal gene mutation, Assay Code: SRLT, Evaluation Type: Evaluation A (Pre-1980)
  mutagenic call: no conclusion
Species/Cell Type: Escherichia coli polA (W3119 vs P3478), Assay Type: Rec-assay, DNA effects (bacterial DNA repair), Assay Code: RE1-, Evaluation Type: Evaluation A (Pre-1980)
  mutagenic call: inactive; negative
Species/Cell Type: Vicia faba, Assay Type: Chromosome aberrations, Assay Code: VIC+, Evaluation Type: Evaluation A (Pre-1980)
  mutagenic call: active; positive

## CCCCNCCCC
Species/Cell Type: Nonhuman, Assay Type: Chromosome aberrations in vitro, Assay Code: CY&+D, Dose Response: With dose response, Evaluation Type: Evaluation A (Pre-1980)
  mutagenic call: active; positive
Species/Cell Type: Nonhuman, Assay Type: Sister-chromatid exchange (SCE) in vitro, Assay Code: SC2+, Evaluation Type: Evaluation A (Pre-1980)
  mutagenic call: active; positive

## CC(=O)C1COC(O)C1C (configuration not stated)
[4]
  mutagenic call: active; positive

## O.O.O.O.O=C([O-])[O-].[Ni+2].[Ni].[Ni]
[5]
  mutagenic call: active; positive

## C=CC(=O)OCC
[6]
  mutagenic call: active; positive

## [CH3][Hg][O]C(C)=O
Species/Cell Type: Mammalian polychromatic erythrocytes, Assay Type: Micronucleus test, chromosome aberrations, Assay Code: MNTT, Evaluation Type: Evaluation A (Pre-1980)
  mutagenic call: no conclusion
[7]
  mutagenic call: inactive; negative

## [Cl-].[Cl-].[Cl-].[Ru+3]
[8]
  mutagenic call: inactive; negative

## COc1ccc2c(c1)c(CC(=O)O)c(C)n2C(=O)c1ccc(Cl)cc1
Species/Cell Type: Human lymphocytes, Assay Type: Sister-chromatid exchange (SCE) in vivo, Assay Code: SCY+, Evaluation Type: Evaluation B (Post-1980)
  mutagenic call: active; positive
[9]
  mutagenic call: no conclusion
[6]
  mutagenic call: active; positive
Species/Cell Type: Nonhuman, Assay Type: Sister-chromatid exchange (SCE) in vitro, Assay Code: SC2T, Evaluation Type: Evaluation B (Post-1980)
  mutagenic call: no conclusion

## N[C@@H](CS)C(=O)O
[10]
  mutagenic call: inactive; negative
Species/Cell Type: Human lymphocytes, Assay Type: Sister-chromatid exchange (SCE) in vitro, Assay Code: SCLT, Evaluation Type: Evaluation B (Post-1980)
  mutagenic call: no conclusion
[9]
  mutagenic call: no conclusion
[4]
  mutagenic call: active; positive

## [Cl][Hg]
Species/Cell Type: Bacillus subtilis (H17 vs M45), Assay Type: Rec-assay, spot test, DNA effects (bacterial DNA repair), Assay Code: REW+, Evaluation Type: Evaluation A (Pre-1980)
  mutagenic call: active; positive
[3]
  mutagenic call: no conclusion
[5]
  mutagenic call: active; positive

## NC(=O)N/N=C(/CCN1CCCCC1)c1ccc([N+](=O)[O-])o1
Species/Cell Type: Escherichia coli WP2, Assay Type: Tryptophan reverse gene mutation, Assay Code: WP2+, Evaluation Type: Evaluation A (Pre-1980)
  mutagenic call: active; positive
Species/Cell Type: Escherichia coli WP2 UVRA, Assay Type: Tryptophan reverse gene mutation, Assay Code: WPU+, Evaluation Type: Evaluation A (Pre-1980)
  mutagenic call: active; positive

## OCCS
[4]
  mutagenic call: active; positive

## CC(=O)Oc1cc(OC(C)=O)c2c(=O)c(OC(C)=O)c(-c3ccc(OC(C)=O)c(OC(C)=O)c3)oc2c1
[2]
  mutagenic call: active; positive

## C[C@H]1c2cccc(O)c2C(O)=C2C(=O)[C@]3(O)C(O)=C(C(N)=O)C(=O)[C@@H](N(C)C)[C@@H]3[C@@H](O)[C@@H]21
Species/Cell Type: Human, Sex: Male, Assay Type: Sperm morphology, Assay Code: SPHT, Evaluation Type: Evaluation A (Pre-1980)
  mutagenic call: no conclusion

## O=C(OCC1CCN2CCC(OC(=O)c3ccc([N+](=O)[O-])cc3)C12)c1ccc([N+](=O)[O-])cc1 (configuration not stated)
[10]
  mutagenic call: inactive; negative

## O=Nc1ccc2c(c1)Cc1ccccc1-2
Species/Cell Type: Escherichia coli polA (W3119 vs P3478), Assay Type: Rec-assay, DNA effects (bacterial DNA repair), Assay Code: RE1+, Evaluation Type: Evaluation A (Pre-1980)
  mutagenic call: active; positive
[1]
  mutagenic call: active; positive

## CNc1ccc(N(CCO)CCO)cc1[N+](=O)[O-]
Species/Cell Type: Mammalian polychromatic erythrocytes, Assay Type: Micronucleus test, chromosome aberrations, Assay Code: MNTT, Evaluation Type: Evaluation B (Post-1980)
  mutagenic call: no conclusion
[11]
  call: active; positive
[4]
  mutagenic call: active; positive

## [Cl][Sn][Cl]
[8]
  mutagenic call: inactive; negative
[12]
  mutagenic call: inactive; negative
Species/Cell Type: Nonhuman, Assay Code: CCG-L, Evaluation Type: Evaluation A (Pre-1980)
  call: inactive; negative
Species/Cell Type: Nonhuman, Assay Type: Sister-chromatid exchange (SCE) in vitro, Assay Code: SC2-, Evaluation Type: Evaluation B (Post-1980)
  mutagenic call: inactive; negative

## C/C(=C(\CCOC(=O)c1ccccc1)SC(=O)c1ccccc1)N(C=O)Cc1cnc(C)nc1N
[8]
  mutagenic call: inactive; negative
Species/Cell Type: Escherichia coli WP2, Assay Type: Tryptophan reverse gene mutation, Assay Code: WP2-*, Activation: With metabolic activation, Evaluation Type: Evaluation A (Pre-1980)
  mutagenic call: inactive; negative
[12]
  mutagenic call: inactive; negative

## Oc1c(I)cc(Cl)c2cccnc12
Species/Cell Type: Neurospora crassa, Assay Type: Aneuploidy, chromosome aberrations, Assay Code: NEN-, Evaluation Type: Evaluation A (Pre-1980)
  mutagenic call: inactive; negative

## CCOC(=O)N(C)C(=O)CSP(=S)(OCC)OCC
[13]
  mutagenic call: no conclusion

## CC1CN(N=O)CC(C)O1 (configuration not stated)
[2]
  mutagenic call: active; positive

## Cc1ccc(NC(=O)N(CCCl)N=O)cc1NC(=O)N(CCCl)N=O
[14]
  mutagenic call: active; positive

## c1nncnn1
[13]
  mutagenic call: no conclusion

## CC(=O)Nc1ccc(/C=C/c2ccccc2)cc1
Species/Cell Type: Human diploid fibroblasts, Assay Type: Unscheduled DNA synthesis (UDS) in vitro, DNA effects, Assay Code: UDH-, Evaluation Type: Evaluation A (Pre-1980)
  mutagenic call: inactive; negative
[2]
  mutagenic call: active; positive

## CCCCCCO
Species/Cell Type: Nonhuman, Assay Type: Sister-chromatid exchange (SCE) in vivo, Assay Code: SC3T, Evaluation Type: Evaluation B (Post-1980)
  mutagenic call: no conclusion

## O=NN(CCCl)C(=O)NCCCl
Species/Cell Type: Chinese hamster lung (V79) cells, Assay Type: Forward gene mutation at the HPRT or ouabain locus, Assay Code: V79+, Evaluation Type: Evaluation A (Pre-1980)
  mutagenic call: active; positive
Species/Cell Type: Drosophila melanogaster, Assay Type: Sex-linked recessive lethal gene mutation, Assay Code: SRL+, Evaluation Type: Evaluation A (Pre-1980)
  mutagenic call: active; positive
Species/Cell Type: Human lymphocytes, Assay Type: Sister-chromatid exchange (SCE) in vitro, Assay Code: SCL+, Evaluation Type: Evaluation B (Post-1980)
  mutagenic call: active; positive
Species/Cell Type: Human, Assay Type: Sister-chromatid exchange (SCE) in vitro, Assay Code: SC1+D, Dose Response: With dose response, Evaluation Type: Evaluation B (Post-1980)
  mutagenic call: active; positive
[11]
  call: active; positive
[4]
  mutagenic call: active; positive
Species/Cell Type: Nonhuman, Assay Type: Sister-chromatid exchange (SCE) in vivo, Assay Code: SC3+D, Dose Response: With dose response, Evaluation Type: Evaluation B (Post-1980)
  mutagenic call: active; positive
[14]
  mutagenic call: active; positive
[1]
  mutagenic call: active; positive

## Nc1ccc(S)cc1
[7]
  mutagenic call: inactive; negative

## CCCCc1cc2c(c3ccc4ccccc4c13)CCC2=O
Species/Cell Type: Salmonella typhimurium (one or more of the five standard strains: TA98, TA100, TA1535, TA1537, and TA1538), Assay Type: Histidine reverse gene mutation, Ames assay, Assay Code: SALT, Evaluation Type: Evaluation A (Pre-1980)
  mutagenic call: no conclusion

## [NH4+].[O-2].[O-2].[O-2].[O-2].[O-2].[Sb+3].[W]
Species/Cell Type: Syrian hamster embryo (SA7/SHE) cells, Assay Type: Cell transformation, viral enhanced, Assay Code: CT7+, Evaluation Type: Evaluation A (Pre-1980)
  mutagenic call: active; positive
